Experimental data published in patent US6737383B1, “Herbicidal oxadiazolidines” (priority 1999, dated 2004).

Columns and labels:
bedstraw = test: Test B pre/postemergence bedstraw; type: in vivo, Galium aparine
Outline: (§1)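 Test chemicals in a non-phytotoxic solvent mixture with surfactant were sprayed preemergence onto planted seeds and postemergence onto plants 2 to 18 cm tall (1- to 4-leaf stage). After twelve to sixteen days in a greenhouse, injury was visually rated against untreated controls from 0 (no effect) to 10 (complete control).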

wild oat = test: Test B pre/postemergence wild oat; type: in vivo, Avena fatua
Outline: as §1

morningglory = test: Test B pre/postemergence morningglory; type: in vivo, Ipomoea hederacea
Outline: as §1

purple nutsedge = test: Test B pre/postemergence purple nutsedge; type: in vivo, Cyperus rotundus
Outline: as §1

blackgrass = test: Test B pre/postemergence blackgrass; type: in vivo, Alopecurus myosuroides
Outline: as §1

surinam grass = test: Test B pre/postemergence surinam grass; type: in vivo, Brachiaria decumbens
Outline: as §1

rape = test: Test B pre/postemergence rape; type: in vivo, Brassica napus
Outline: as §1

corn = test: Test B pre/postemergence corn; type: in vivo, Zea mays
Outline: as §1

wheat = test: Test B pre/postemergence wheat; type: in vivo, Triticum aestivum
Outline: as §1

giant foxtail = test: Test B pre/postemergence giant foxtail; type: in vivo, Setaria faberii
Outline: as §1

sugar beet = test: Test B pre/postemergence sugar beet; type: in vivo, Beta vulgaris
Outline: as §1

crabgrass = test: Test B pre/postemergence crabgrass; type: in vivo, Digitaria sanguinalis
Outline: as §1

pigweed = test: Test B pre/postemergence pigweed; type: in vivo, Amaranthus retroflexus
Outline: as §1

velvetleaf = test: Test B pre/postemergence velvetleaf; type: in vivo, Abutilon theophrasti
Outline: as §1

cocklebur = test: Test B pre/postemergence cocklebur; type: in vivo, Xanthium strumarium
Outline: as §1

soybean = test: Test B pre/postemergence soybean; type: in vivo, Glycine max
Outline: as §1

[1] = Postemergence, Rate 125 g/ha, scale of 0 to 10 where 0 is no effect and 10 is complete control
[2] = Preemergence, Rate 125 g/ha, scale of 0 to 10 where 0 is no effect and 10 is complete control
[3] = Preemergence, Rate 250 g/ha, scale 0 (no effect) to 10 (complete control)
[4] = Rate 62 g/ha, Preemergence, scale 0 to 10
[5] = Rate 250 g/ha, Postemergence, scale 0 to 10, 0 is no effect, 10 is complete control
[6] = Rate 500 g/ha, Postemergence, scale 0 to 10, 0 is no effect, 10 is complete control
[7] = Rate 500 g/ha, Preemergence, scale 0 to 10 (0 no effect, 10 complete control)
[8] = Postemergence, Rate 62 g/ha, scale 0 to 10, 0 is no effect, 10 is complete control

SMILES: CC(C)N(C(=O)n1oc(=O)n(CCN(C)C(=O)c2ccccc2)c1=O)c1ccccc1 [Compound 761]
- Bedstraw plant response rating (bedstraw; [1]): 0
- Plant response rating, Bedstraw (bedstraw; [2]): 0
- Bedstraw plant response rating (bedstraw; [3]): 0
- Bedstraw plant response rating (bedstraw; [4]): 0
- Bedstraw plant response rating (bedstraw; [5]): 0
- Bedstraw plant response rating (bedstraw; [6]): 3
- Bedstraw plant response rating (bedstraw; [7]): 0
- Plant response rating, Wild oats (wild oat; [8]): 0
- Plant response rating, Wild oats (wild oat; [2]): 0
- Wild oats plant response rating (wild oat; [3]): 0
- Wild oats plant response rating (wild oat; [4]): 0
- Wild oats plant response rating (wild oat; [5]): 0
- Wild oats plant response rating (wild oat; [6]): 0
- Wild oats plant response rating (wild oat; [7]): 0
- Plant response rating, Morningglory (morningglory; [8]): 0
- Morningglory plant response rating (morningglory; [1]): 6
- Plant response rating, Morningglory (morningglory; [2]): 0
- Morningglory plant response rating (morningglory; [3]): 0
- Morningglory plant response rating (morningglory; [4]): 0
- Morningglory plant response rating (morningglory; [5]): 7
- Morningglory plant response rating (morningglory; [7]): 0
- Plant response rating, Nutsedge (purple nutsedge; [8]): 0
- Nutsedge plant response rating (purple nutsedge; [1]): 0
- Plant response rating, Nutsedge (purple nutsedge; [2]): 0
- Nutsedge plant response rating (purple nutsedge; [3]): 0
- Nutsedge plant response rating (purple nutsedge; [4]): 0
- Nutsedge plant response rating (purple nutsedge; [5]): 0
- Nutsedge plant response rating (purple nutsedge; [6]): 0
- Nutsedge plant response rating (purple nutsedge; [7]): 0
- Plant response rating, Blackgrass (blackgrass; [8]): 0
- Blackgrass plant response rating (blackgrass; [1]): 0
- Plant response rating, Blackgrass (blackgrass; [2]): 0
- Blackgrass plant response rating (blackgrass; [3]): 0
- Blackgrass plant response rating (blackgrass; [4]): 0
- Blackgrass plant response rating (blackgrass; [5]): 0
- Blackgrass plant response rating (blackgrass; [6]): 0
- Blackgrass plant response rating (blackgrass; [7]): 0
- Plant response rating, B. signalgrass (surinam grass; [8]): 0
- B. signalgrass plant response rating (surinam grass; [1]): 0
- B. signalgrass plant response rating (surinam grass; Preemergence, Rate 62 g/ha, scale of 0 to 10 where 0 is no effect and 10 is complete control): 0
- Plant response rating, B. signalgrass (surinam grass; [2]): 0
- B. signalgrass plant response rating (surinam grass; [3]): 0
- B. signalgrass plant response rating (surinam grass; [5]): 3
- B. signalgrass plant response rating (surinam grass; [6]): 3
- B. signalgrass plant response rating (surinam grass; [7]): 3
- Plant response rating, Rape (rape; [8]): 0
- Rape plant response rating (rape; [1]): 0
- Plant response rating, Rape (rape; [2]): 0
- Rape plant response rating (rape; [3]): 0
- Rape plant response rating (rape; [4]): 0
- Rape plant response rating (rape; [5]): 0
- Rape plant response rating (rape; [6]): 0
- Rape plant response rating (rape; [7]): 0
- Plant response rating, Corn (corn; [8]): 0
- Corn plant response rating (corn; [1]): 0
- Plant response rating, Corn (corn; [2]): 0
- Corn plant response rating (corn; [3]): 0
- Corn plant response rating (corn; [4]): 0
- Corn plant response rating (corn; [5]): 0
- Corn plant response rating (corn; [6]): 0
- Corn plant response rating (corn; [7]): 0
- Plant response rating, Wheat (wheat; [8]): 0
- Plant response rating, Wheat (wheat; [2]): 0
- Wheat plant response rating (wheat; [3]): 0
- Wheat plant response rating (wheat; [4]): 0
- Wheat plant response rating (wheat; [5]): 0
- Wheat plant response rating (wheat; [6]): 0
- Wheat plant response rating (wheat; [7]): 0
- Plant response rating, Giant foxtail (giant foxtail; [8]): 0
- Giant foxtail plant response rating (giant foxtail; [1]): 0
- Plant response rating, Giant foxtail (giant foxtail; [2]): 0
- Giant foxtail plant response rating (giant foxtail; [3]): 8
- Giant foxtail plant response rating (giant foxtail; [4]): 0
- Giant foxtail plant response rating (giant foxtail; [6]): 3
- Giant foxtail plant response rating (giant foxtail; [7]): 9
- Plant response rating, Sugarbeets (sugar beet; [8]): 2
- Plant response rating, Sugarbeets (sugar beet; [2]): 0
- Sugarbeets plant response rating (sugar beet; [3]): 0
- Sugarbeets plant response rating (sugar beet; [4]): 0
- Sugarbeets plant response rating (sugar beet; [5]): 3
- Sugarbeets plant response rating (sugar beet; [6]): 6
- Sugarbeets plant response rating (sugar beet; [7]): 0
- Plant response rating, Crabgrass (crabgrass; [2]): 3
- Crabgrass plant response rating (crabgrass; [3]): 5
- Crabgrass plant response rating (crabgrass; [4]): 3
- Crabgrass plant response rating (crabgrass; [5]): 0
- Crabgrass plant response rating (crabgrass; [6]): 0
- Crabgrass plant response rating (crabgrass; [7]): 3
- Plant response rating, Redroot pigweed (pigweed; [8]): 0
- Plant response rating, Redroot pigweed (pigweed; [2]): 0
- Redroot pigweed plant response rating (pigweed; [3]): 0
- Redroot pigweed plant response rating (pigweed; [4]): 0
- Redroot pigweed plant response rating (pigweed; [5]): 6
- Redroot pigweed plant response rating (pigweed; [6]): 6
- Redroot pigweed plant response rating (pigweed; [7]): 0
- Plant response rating, Velvetleaf (velvetleaf; [8]): 0
- Plant response rating, Velvetleaf (velvetleaf; [2]): 0
- Velvetleaf plant response rating (velvetleaf; [3]): 0
- Velvetleaf plant response rating (velvetleaf; [4]): 0
- Velvetleaf plant response rating (velvetleaf; [5]): 0
- Velvetleaf plant response rating (velvetleaf; [6]): 0
- Velvetleaf plant response rating (velvetleaf; [7]): 0
- Plant response rating, Cocklebur (cocklebur; [8]): 0
- Cocklebur plant response rating (cocklebur; [1]): 0
- Plant response rating, Cocklebur (cocklebur; [2]): 0
- Cocklebur plant response rating (cocklebur; [3]): 0
- Cocklebur plant response rating (cocklebur; [4]): 0
- Cocklebur plant response rating (cocklebur; [5]): 0
- Cocklebur plant response rating (cocklebur; [6]): 0
- Cocklebur plant response rating (cocklebur; [7]): 0
- Plant response rating, Soybean (soybean; [8]): 2
- Plant response rating, Soybean (soybean; [2]): 0
- Soybean plant response rating (soybean; [3]): 0
- Soybean plant response rating (soybean; [4]): 0
- Soybean plant response rating (soybean; [5]): 3
- Soybean plant response rating (soybean; [6]): 3
- Soybean plant response rating (soybean; [7]): 0
